The record followed here is the NIST ThermoML archive (doi:10.1016/j.fluid.2017.09.008).

The structures appear in SMILES notation. Numbers after ± are expanded uncertainties.

This series in a line: excess molar enthalpy (molar enthalpy of mixing); xn = mol fraction of the nth substance listed. The note with it: 298.15 K, 101 kPa, Liquid, DSC [Setaram C80].

With `COc1ccccc1O` [2-methoxyphenol] + CCO, the excess molar enthalpy was -0.00716 ± 0.00526 kcal/mol (x1 = 0.0168); -0.0907 ± 0.00406 kcal/mol (x1 = 0.1988); -0.131 ± 0.00263 kcal/mol (x1 = 0.3994); -0.121 ± 0.00311 kcal/mol (x1 = 0.608); -0.0568 ± 0.00454 kcal/mol (x1 = 0.7783).
As for `Cc1ccccc1O` [2-methylphenol] + CCO, the excess molar enthalpy by setting is: (x1 = 0.1954) -0.266 ± 0.00932 kcal/mol; (x1 = 0.4127) -0.387 ± 0.00837 kcal/mol; (x1 = 0.6007) -0.395 ± 0.00884 kcal/mol; (x1 = 0.8013) -0.226 ± 0.0112 kcal/mol.
As for `Cc1cccc(O)c1` [3-methylphenol] + CCO, the excess molar enthalpy is -0.189 ± 0.00574 kcal/mol (x1 = 0.2003), -0.293 ± 0.00406 kcal/mol (x1 = 0.4097), -0.274 ± 0.00478 kcal/mol (x1 = 0.5861) and -0.164 ± 0.00598 kcal/mol (x1 = 0.7875).
